Results reported in ChEMBL document CHEMBL1131780 (Bioorg Med Chem Lett, 1999).
Positions count from the first letter of the chain named.

What was measured:
[1] = molecular target: T1, Muscarinic acetylcholine receptor M1 (Homo sapiens, UniProt P11229); test: Affinity towards human M1 receptor expressed in CHO cells using [3H]QNB as radioligand; format: cell-based
T1 sequence (P11229 whole entry): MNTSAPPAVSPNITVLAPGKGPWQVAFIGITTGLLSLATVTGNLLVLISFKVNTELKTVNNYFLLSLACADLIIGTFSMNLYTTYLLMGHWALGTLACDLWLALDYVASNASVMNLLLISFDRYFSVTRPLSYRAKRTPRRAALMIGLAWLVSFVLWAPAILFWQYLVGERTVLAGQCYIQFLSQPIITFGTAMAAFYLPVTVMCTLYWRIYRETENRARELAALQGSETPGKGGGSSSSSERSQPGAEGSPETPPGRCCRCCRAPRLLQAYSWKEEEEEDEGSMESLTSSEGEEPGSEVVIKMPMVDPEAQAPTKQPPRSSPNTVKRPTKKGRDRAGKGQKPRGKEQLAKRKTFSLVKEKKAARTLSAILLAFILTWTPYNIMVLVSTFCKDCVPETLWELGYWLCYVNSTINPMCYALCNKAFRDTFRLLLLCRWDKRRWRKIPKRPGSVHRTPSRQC

[2] = molecular target: T2, Muscarinic acetylcholine receptor M1 (Homo sapiens) (UniProt P11229); test: Efficacy expressed as PI (percentage of carbachol) against human M1 receptor expressed in CHO cells; format: functional, cell-based
T2 sequence (whole entry): T1 sequence (P11229 whole entry)

[3] = molecular target: T2, Muscarinic acetylcholine receptor M1 (Homo sapiens)
Description: Effective dose against affinity towards human muscarinic M1 receptor

[4] = molecular target: T3, Muscarinic acetylcholine receptor M2 (Homo sapiens, UniProt P08172); test: Binding affinity towards human muscarinic M2 receptor
T3 sequence (P08172 whole entry): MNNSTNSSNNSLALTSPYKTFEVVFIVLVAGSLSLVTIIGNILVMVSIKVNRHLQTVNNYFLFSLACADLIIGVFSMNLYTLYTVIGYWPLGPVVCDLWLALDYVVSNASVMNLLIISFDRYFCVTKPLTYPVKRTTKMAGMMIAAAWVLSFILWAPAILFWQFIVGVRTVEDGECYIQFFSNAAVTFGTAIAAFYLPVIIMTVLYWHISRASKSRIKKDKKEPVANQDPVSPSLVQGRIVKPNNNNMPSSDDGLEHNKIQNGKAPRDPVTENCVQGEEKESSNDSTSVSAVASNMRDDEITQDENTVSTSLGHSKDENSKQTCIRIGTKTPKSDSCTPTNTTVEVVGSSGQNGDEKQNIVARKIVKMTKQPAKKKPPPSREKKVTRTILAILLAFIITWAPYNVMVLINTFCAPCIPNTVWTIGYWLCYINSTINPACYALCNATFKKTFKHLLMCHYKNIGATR

[5] = molecular target: T4, Muscarinic acetylcholine receptor M2 (Homo sapiens) (UniProt P08172); test: Effective dose against affinity towards human muscarinic M2 receptor; format: functional
T4 sequence (whole entry): T3 sequence (P08172 whole entry)

[6] = Compound was evaluated in vivo for lethal dose in rats; format: ADME, organism-based; conditions: rat
Rattus norvegicus [7] = species: Rattus norvegicus; test: Compound was evaluated for minimum effective dose in the rat radial arm maze model; format: functional; conditions: read-out: MED
[8] = molecular target: T5, Muscarinic acetylcholine receptor M3 (Homo sapiens, UniProt P20309); test: In vitro functional agonism against M3 muscarinic receptor (PI)
T5 sequence (P20309 whole entry): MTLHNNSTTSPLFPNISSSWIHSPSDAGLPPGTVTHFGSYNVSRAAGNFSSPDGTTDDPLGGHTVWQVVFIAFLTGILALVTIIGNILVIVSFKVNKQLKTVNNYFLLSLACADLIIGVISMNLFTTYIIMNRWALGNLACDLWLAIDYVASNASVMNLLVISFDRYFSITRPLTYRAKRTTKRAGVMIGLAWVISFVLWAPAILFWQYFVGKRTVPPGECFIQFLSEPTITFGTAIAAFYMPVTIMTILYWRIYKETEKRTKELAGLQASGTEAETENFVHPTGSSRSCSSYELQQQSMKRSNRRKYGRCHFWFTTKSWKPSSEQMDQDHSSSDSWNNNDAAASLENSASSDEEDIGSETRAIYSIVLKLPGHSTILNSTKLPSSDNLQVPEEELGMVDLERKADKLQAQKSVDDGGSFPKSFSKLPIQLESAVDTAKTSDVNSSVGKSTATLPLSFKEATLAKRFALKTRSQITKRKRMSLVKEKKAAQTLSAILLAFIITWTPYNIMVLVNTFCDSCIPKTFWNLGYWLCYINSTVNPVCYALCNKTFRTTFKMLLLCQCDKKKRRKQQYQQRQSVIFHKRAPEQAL

Monkey [9] = test: In vivo cognitive assessment after oral administration of WAY-132983 in primates (Rhesus and cynomolgus monkeys) using pre-trained aged subjects (short delay); format: functional; conditions: Cercopithecidae, read-out: MED
Monkey [10] = test: In vivo cognitive assessment after oral administration of WAY-132983 in primates (Rhesus and cynomolgus monkeys) using pre-trained aged subjects (long delay); format: functional; conditions: Cercopithecidae, read-out: MED
[11] = molecular target: T3, Muscarinic acetylcholine receptor M2; test: In vitro functional agonism against M2 muscarinic receptor (cAMP)
[12] = Compound was evaluated for half-life in human liver microsomes; format: ADME, Microsome
[13] = molecular target: T5, Muscarinic acetylcholine receptor M3; test: Binding affinity towards human muscarinic M3 receptor
Rattus norvegicus [14] = test: Compound was evaluated in vivo for cognitive impairment reduction in AF64-impaired RAM, rat administered subcutaneously; format: functional; conditions: sc, read-out: MED
[15] = molecular target: T1, Muscarinic acetylcholine receptor M1; test: In vitro functional agonism against M1 muscarinic receptor (PI)
[16] = molecular target: T6, Muscarinic acetylcholine receptor M1 (Rattus norvegicus, UniProt P08482); test: Binding affinity against M1 receptor was determined by displacing [3H]OXO-M in rat cortical homogenate
T6 sequence (P08482 whole entry): T1 sequence (P11229 whole entry) with A5V, T254S, P309S, R320K, A337G, I413V

With `CCCCCCSc1nccnc1O[C@@H]1CN2CCC1C2` (stereo not given in full) the Ki [1] was 75 nM and the PI [2] was 107%.

With `CCCCCCSc1nccnc1SC1CN2CCC1C2` (stereo not given) the PI [2] was 62%.

In the case of `CCCCCCOc1nsnc1C1=CCCN(C)C1`, the PI [2] is reported as 79%.

`CCCCCCOc1nccnc1O[C@@H]1CN2CCC1C2` (stereo in doubt; 12) [listing 1 of 2 here] gave a PI [2] of 9%.

In the case of `CCCCCCOc1nccnc1OC1CN2CCC1C2` (stereo not given), the ED50 [3] is reported as 1.4 nM, the PI [2] is reported as 88% and the Ki [4] is reported as 20 nM. The ED50 [5] was 600 nM.

For `c1cnc(O[C@@H]2CN3CCC2C3)cn1` (stereo in doubt; 2) [listing 1 of 2 here], the Ki [1] was 2500 nM.

With `c1cnc(O[C@@H]2CN3CCC2C3)cn1` (stereo in doubt; 1) [listing 1 of 2 here] the Ki [1] was 5600 nM, the Ki [4] was 40 nM and the LD50 [6] was 30 mg/kg.

For `CCCCCCSc1nccnc1OC1CN2CCC1C2` (stereo in doubt; 8), the PI [2] was 104%.

Work on `CCCCCCOc1nccnc1O[C@@H]1CN2CCC1C2` (stereo in doubt; 6) yielded a Ki [1] of 14 nM.

In the case of `CCCCCCOc1nccnc1SC1CN2CCC1C2` (stereo not given), the PI [2] is reported as 42%.

`CCCCCCOc1nccnc1O[C@@H]1CN2CCC1C2` (stereo in doubt; 12) [listing 2 of 2 here] showed a Ki [1] of 465 nM.

For `CNC(=O)O[C@@H]1CN2CCC1C2` (stereo not given in full), the Ki [1] was 26000 nM, the PI [2] was 100% and the minimal effective dose (Rattus norvegicus [7]) was 1 mg/kg.

`CCCCCCSc1nccnc1O[C@H]1CN2CCC1C2.Cl` (stereo not given in full) showed a Ki [1] of 2 nM, an EC50 [8] of 3.7 nM and a minimal effective dose (Monkey [9]) of 0.03 mg/kg. The minimal effective dose (Monkey [10]) was 0.01 mg/kg, the Ki [4] was 3.4 nM and the EC50 [11] was 8 nM. The half-life [12] was 1.88 h, the Ki [13] was 5.9 nM and the minimal effective dose (Rattus norvegicus [14]) was 0.03 mg/kg. It also gave an EC50 [15] of 1.1 nM and a Ki [16] of 0.4 nM.

Molecule `CCCCCCSc1cncc(OC2CN3CCC2C3)n1` (stereo not given) has a Ki [1] of 22 nM and a PI [2] of 2%.

For `CCCCCCSc1nccnc1OC1CN2CCC1C2` (stereo in doubt; 4) [listing 1 of 2 here], the PI [2] was 85%.

With `CCCCCCSc1nccnc1O[C@H]1CN2CCC1C2` (stereo not given in full) the Ki [1] was 124 nM.

For `c1cnc(O[C@@H]2CN3CCC2C3)cn1` (stereo in doubt; 2) [listing 2 of 2 here], the PI [2] was 83%.

Molecule `CCCCCCOc1nccnc1O[C@H]1CN2CCC1C2` (stereo not given in full) has a Ki [1] of 690 nM and a PI [2] of 56%.

Work on `c1cnc(O[C@@H]2CN3CCC2C3)cn1` (stereo in doubt; 1) [listing 2 of 2 here] yielded a PI [2] of 96%.

For `CCCCCCSc1nccnc1OC1CN2CCC1C2` (stereo in doubt; 4) [listing 2 of 2 here], the Ki [1] was 7 nM.
